Laboratory results: patent US20120165339A1, “CYCLOPROPANE DERIVATIVES” (EISAI R&D MANAGEMENT CO., LTD., priority 2010, published 2012)
pIC50, pKi: −log10 of the molar value. Read-outs that look alike come from different tables or passages of the source.

Legend:
OX1 [1] = target: T1, OX1 (Homo sapiens, UniProt O43613); test: Orexin-receptor binding ability, [125I]-OX-A, CHO cell membranes expressing OX1; design: expressed in transfected cells; host or cells: CHO cells (membrane preparation)
T1 sequence (O43613 1-425): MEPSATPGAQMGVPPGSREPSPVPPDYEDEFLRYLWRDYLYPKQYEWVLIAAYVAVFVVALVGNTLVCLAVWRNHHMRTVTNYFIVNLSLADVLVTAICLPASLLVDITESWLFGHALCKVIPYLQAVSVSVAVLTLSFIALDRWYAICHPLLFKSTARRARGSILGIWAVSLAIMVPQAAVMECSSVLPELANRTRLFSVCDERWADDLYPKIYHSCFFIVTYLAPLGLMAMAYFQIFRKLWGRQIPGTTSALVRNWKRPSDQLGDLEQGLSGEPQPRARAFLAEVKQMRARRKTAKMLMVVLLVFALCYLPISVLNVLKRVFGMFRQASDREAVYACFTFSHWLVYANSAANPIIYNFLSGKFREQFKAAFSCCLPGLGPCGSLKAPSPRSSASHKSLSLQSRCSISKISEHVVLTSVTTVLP
Experimental: (§1) The assay was carried out using a 96-well Wheat Germ Agglutinin Flash Plate (PerkinElmer). The volume in a single assay well was 100 ul, and the composition of the reaction solution was as follows:
(§2) 25 mM HEPES (pH 7.5), 1 mM CaCl2, 4.5 mM MgCl2, 0.5% BSA (bovine serum albumin), 0.1% sodium azide, 0.05% Tween-20, and 0.2% DMSO.
Cell membranes were prepared from recombinant CHO cells that expressed OX2 or OX1. The cell membranes were used in an amount of 5 μg protein/assay. […] Finally, the radioactivity of each well was measured using a scintillation counter (TopCount, PerkinElmer). The obtained results are shown in terms of IC50 values (nM) in the following table.

OX2 [2] = target: T2, OX2 (Homo sapiens, UniProt O43614); test: Orexin-receptor binding ability, [125I]-OX-A, CHO cell membranes expressing OX2; design: expressed in transfected cells; host or cells: CHO cells (membrane preparation)
T2 sequence (O43614 1-444): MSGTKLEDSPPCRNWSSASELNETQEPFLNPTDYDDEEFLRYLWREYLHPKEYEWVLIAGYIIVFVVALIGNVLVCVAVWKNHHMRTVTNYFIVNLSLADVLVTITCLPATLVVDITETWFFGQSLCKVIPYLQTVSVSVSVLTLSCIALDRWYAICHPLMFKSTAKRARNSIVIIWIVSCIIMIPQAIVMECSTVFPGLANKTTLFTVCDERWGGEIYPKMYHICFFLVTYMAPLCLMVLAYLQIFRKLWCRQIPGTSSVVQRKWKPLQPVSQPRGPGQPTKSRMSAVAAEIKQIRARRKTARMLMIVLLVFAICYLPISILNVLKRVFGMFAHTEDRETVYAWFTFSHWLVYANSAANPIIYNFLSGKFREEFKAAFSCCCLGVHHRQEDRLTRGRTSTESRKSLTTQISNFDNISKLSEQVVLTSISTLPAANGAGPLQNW
Experimental: as §1, §2
Cell membranes were prepared from recombinant CHO cells that expressed OX2 or OX1. The cell membranes were used in an amount of 5 μg protein/assay. Test compound in various concentrations, and 0.2 nM [^125I]-OX-A as tracer were added to the cell membranes, and then allowed to react at room temperature for 30 minutes. After completion of the reaction, the reaction solution as a whole was discarded, and the wells were then washed once with 200 ul of wash buffer (25 mM HEPES (pH 7.5), 1 mM CaCl2, 5 mM MgCl2, 0.5% BSA, 0.1% sodium azide, 0.05% Tween-20, and 525 mM sodium chloride). Finally, the radioactivity of each well was measured using a scintillation counter (TopCount, PerkinElmer). The obtained results are shown in terms of IC50 values (nM) in the following table.

OX2 [3] = target: T2, OX2; test: Antagonism PLAP reporter assay, HEK-293 cells expressing human OX2; assay type: cell-based; design: expressed in transfected cells; host or cells: HEK-293 cell line, expression vector pBabeCLIH; settings: HEK-293, 1 nM human OX-A; IC50 converted to Ki by Cheng-Prusoff equation
Experimental: (§3) The antagonistic function of the compound of the present invention to prevent the activation of OX2 and OX1 by orexin-A (OX-A), which is a natural peptide agonist, was measured using a cell-based reporter assay. A HEK-293 cell line expressing genetically recombinant human OX2 (accession No. NM_001526.3) or a HEK-293 cell line expressing genetically recombinant human OX1 (accession No. NM_001525.2), which had pBabeCLIH as expression vector, was used. The cells were plated at a density of 10,000 cells/well onto a non-coated 96-well plate in Dulbecco's modified Eagle medium (Sigma Cat No. D6046: 10% v/v heat-inactivated fetal bovine serum was contained). The cells were cultured at 37° C. overnight, so that they could adhere to the plate. On the following day, cells were incubated with a compound of the present invention dissolved in Dulbecco's modified Eagle medium (Sigma Cat No. A8806: 0.1% w/v bovine serum albumin was contained), and added to the cell plate to reach a final concentration of 0.1% dimethyl sulfoxide.
(§4) The thus obtained mixture was incubated at room temperature for 1 hour. Thereafter, human OX-A and forskolin were dissolved in the same medium as described above, which contained fetal bovine serum albumin, and the medium was then added to the cells, resulting in a final concentration of 300 nM forskolin. Subsequently, the cells were cultured at 37° C. for approximately 18 to 24 hours. During the culture, as a result of activation of the orexin receptor and subsequent dose-dependent increase in intracellular calcium concentration, a reporter enzyme, placental alkaline phosphatase (PLAP), was expressed under the control of a CRE x4+VIP promoter in a pBabeCLcre4vPdNN vector and secreted into the culture medium supernatant. On the following day, reporter enzyme activity was detected by mixing 5 ul of the culture medium supernatant with 20 ul of detection buffer (containing 1.34 g/L sodium bicarbonate, 1.27 g/L sodium carbonate and 0.2 g/L magnesium sulfate heptahydrate in water) and 25 ul of Lumi-Phos530 reagent (Wako Pure Chemical Industries Ltd.), followed by incubating the obtained mixture light-protected at room temperature for 2 hours, before performing luminescence measurement (ARVO Reader, PerkinElmer). The Kd value of human OX-A with respect to each receptor was measured by titration from 0 to 300 nM. Then, the IC50 value of the compound of the present invention with respect to the activity of 1 nM human OX-A was converted into a Ki value (nM) using the Cheng-Prusoff equation.

OX1 [4] = target: T1, OX1; test: Antagonism PLAP reporter assay, HEK-293 cells expressing human OX1; assay type: cell-based; design: expressed in transfected cells; host or cells: HEK-293 cell line, expression vector pBabeCLIH; settings: HEK-293, 1 nM human OX-A; IC50 converted to Ki by Cheng-Prusoff equation
Experimental: as §3, §4

[5] = membranes of recombinant CHO cells, 0.2 nM [125I]-OX-A tracer, read-out: OX1 (IC50)
[6] = membranes of recombinant CHO cells, 0.2 nM [125I]-OX-A tracer, read-out: OX2 (IC50)

Row | Compound | pIC50 (OX1 [1]; [5]) | pIC50 (OX2 [2]; [6]) | pKi (OX2 [3]) | pKi (OX1 [4]) | pIC50 (OX1 [1]) | pIC50 (OX2 [2])
1 | COc1ccc(OCC2(c3ccccc3)CC2C(=O)Nc2cccc(F)n2)cc1OC (stereo not drawn) [Example 27, N-(6-fluoropyridin-2-yl)-2-[(3,4-dimethoxyphenyl)oxymethyl]-2-phenylcyclopropanecarboxamide] |  |  | 8.47 | 7.01 | 7.43 | 8.40
2 | COc1cc(F)c(OCC2(c3ccccc3)CC2C(=O)Nc2ccccn2)cc1OC (stereo not drawn) [Example 78] | 6.67 |  | 7.72 | 6.47 |  | 7.70
3 | CCn1cc(OCC2(c3ccccc3)CC2C(=O)Nc2ccc(F)cn2)c(C)n1 (stereo not drawn) [Example 79, N-(5-fluoropyridin-2-yl)-2-[(1-ethyl-3-methyl-1H-pyrazol-4-yl)oxymethyl]-2-phenylcyclopropanecarboxamide] | 6.67 | 7.27 | 7.98 | 6.56 |  | 
4 | Cc1noc2cc(OCC3(c4ccccc4)CC3C(=O)Nc3ccc(C#N)cn3)ccc12 (stereo not drawn) [Example 61] | 6.28 | 7.15 | 7.48 | 6.56 |  | 
5 | COc1ccc(OCC2(c3ccccc3)CC2C(=O)Nc2ccncc2C(F)(F)F)cc1OC (stereo not drawn) [Example 25, N-(3-trifluoromethylpyridin-4-yl)-2-[(3,4-dimethoxyphenyl)oxymethyl]-2-phenylcyclopropanecarboxamide] | 6.43 |  | 6.41 | < 6.09 |  | 7.57
6 | CCc1nc(Cl)cn1CCC1(c2ccccc2)CC1C(=O)Nc1ccc(F)cn1 (stereo not drawn) [Example 113] | 6.03 | 7.31 | 7.20 | < 6.33 |  | 
7 | COc1ccc(OCC2(c3ccccc3)CC2C(=O)Nc2ccc(Cl)cn2)cc1OC (stereo not drawn) [Example 6, N-(5-chloropyridin-2-yl)-2-[(3,4-dimethoxyphenyl)oxymethyl]-2-phenylcyclopropanecarboxamide] |  |  | 9.10 | 8.01 | 7.72 | 8.52
8 | COc1ccc(OCC2(c3ccccc3)CC2C(=O)Nc2ccccc2-c2nnc[nH]2)cc1OC (stereo not drawn) [Example 35, N-[2-(1H-1,2,4-triazol-3-yl)phenyl]-2-[(3,4-dimethoxyphenyl)oxymethyl]-2-phenylcyclopropanecarboxamide] | 5.69 | 7.33 | 6.91 | 5.72 |  | 
9 | COc1ccc(OCC2(c3ccccc3)CC2C(=O)Nc2ccncc2Cl)cc1OC (stereo not drawn) [Example 14, N-(3-chloropyridin-4-yl)-2-[(3,4-dimethoxyphenyl)oxymethyl]-2-phenylcyclopropanecarboxamide] | 6.36 | 7.34 | 7.00 | < 6.09 |  | 

Further lines, with some results ahead:

Row | pIC50 (OX1 [1]; [5]) | pIC50 (OX2 [2]; [6]) | pKi (OX2 [3]) | pKi (OX1 [4]) | Compound | pIC50 (OX1 [1]) | pIC50 (OX2 [2])
10 | 7.24 | 8.05 | 8.28 | 7.32 | CCc1nc(C)c(CC[C@@]2(c3ccccc3)C[C@H]2C(=O)Nc2ccc(C#N)cn2)s1 [Example 100, (1R,2R)—N-(5-cyanopyridin-2-yl)-2-[2-(2-ethyl-4-methyl-1,3-thiazol-5-yl)ethyl]-2-phenylcyclopropanecarboxamide] |  | 
11 | 6.07 | 7.85 | 7.80 | 6.20 | COc1ccc(OCC2(c3ccccc3)CC2C(=O)Nc2nc(C)cs2)cc1OC (stereo not drawn) [Example 23, N-(4-methyl-1,3-thiazol-2-yl)-2-[(3,4-dimethoxyphenyl)oxymethyl]-2-phenylcyclopropanecarboxamide] |  | 
12 | 6.30 | 7.55 | 7.11 | < 6.09 | COc1ccc(OCC2(c3ccccc3)CC2C(=O)Nc2cc(C)on2)cc1OC (stereo not drawn) [Example 21, N-(5-methylisoxazol-3-yl)-2-[(3,4-dimethoxyphenyl)oxymethyl]-2-phenylcyclopropanecarboxamide] |  | 
13 | 6.79 | 7.48 | 7.11 | < 6.33 | CCn1cc(OCC2(c3ccccc3)CC2C(=O)Nc2ccc(Cl)cn2)cn1 (stereo not drawn) [Example 81] |  | 
14 | 7.70 | 8.22 | 8.35 | 7.62 | COc1cccc(NC(=O)C2CC2(COc2ccc(OC)c(OC)c2)c2ccccc2)c1 (stereo not drawn) [Example 34, N-(3-methoxyphenyl)-2-[(3,4-dimethoxyphenyl)oxymethyl]-2-phenylcyclopropanecarboxamide] |  | 
15 | 6.17 | 7.48 | 7.36 | < 6.33 | CCn1cc(OCC2(c3ccccc3)CC2C(=O)Nc2ccc(C#N)cn2)ccc1=O (stereo not drawn) [Example 55] |  | 
16 | 7.36 | 7.21 | 7.52 | 6.32 | Cc1ccc(OCC2(c3ccccc3)CC2C(=O)Nc2ccc(Cl)cn2)c(C)n1 (stereo not drawn) [Example 62] |  | 
17 | 5.90 | 7.77 | 7.04 | < 6.09 | COc1ccc(OCC2(c3ccccc3)CC2C(=O)Nc2cc(C)no2)cc1OC (stereo not drawn) [Example 8, N-(3-methylisoxazol-5-yl)-2-[(3,4-dimethoxyphenyl)oxymethyl]-2-phenylcyclopropanecarboxamide] |  | 
18 | 6.43 | 7.46 | 7.61 | 6.53 | COc1ccc(OC[C@@]2(c3ccccc3)C[C@H]2C(=O)Nc2ccccn2)cc1OC [Example 41, (1R,2S)—N-(pyridin-2-yl)-2-[(3,4-dimethoxyphenyl)oxymethyl]-2-phenylcyclopropanecarboxamide] |  | 
